The assay addresses human FGFR-3 (Homo sapiens (Human), UniProt P22607). Nature of the assay: FGFR-3 kinase assay (TR-FRET). Type of assay: biochemical. To be noted: 10 μM ATP; compounds of the invention. Background: Time-resolved FRET reads energy transfer from a long-lived donor to a nearby acceptor.

human FGFR-3, sequence (P22607 397-806): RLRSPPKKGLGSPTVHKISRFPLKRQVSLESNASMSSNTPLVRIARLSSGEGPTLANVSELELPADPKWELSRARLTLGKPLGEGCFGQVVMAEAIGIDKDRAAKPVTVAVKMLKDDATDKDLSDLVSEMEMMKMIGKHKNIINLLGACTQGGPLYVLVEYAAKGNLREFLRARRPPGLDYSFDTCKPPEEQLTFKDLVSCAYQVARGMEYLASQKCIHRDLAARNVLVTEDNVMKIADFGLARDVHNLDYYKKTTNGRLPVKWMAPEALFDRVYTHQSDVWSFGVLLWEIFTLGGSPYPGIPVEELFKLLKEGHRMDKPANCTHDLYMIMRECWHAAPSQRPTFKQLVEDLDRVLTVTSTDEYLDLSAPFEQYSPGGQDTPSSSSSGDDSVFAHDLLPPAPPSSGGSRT

Consider `COc1cc(OC)c2sc(-c3c(CN4CCNC(=O)C4)cn4ncnc(N)c34)cc2c1` [Example 33, 4-{[4-Amino-5-(5,7-dimethoxy-1-benzothiophen-2-yl)pyrrolo[2,1-f][1,2,4]triazin-6-yl]methyl}-piperazin-2-one], for which the IC50 (usually the midpoint of a concentration-inhibition curve) came to 1.8 nM.
Consider `COCCN(Cc1cn2ncnc(N)c2c1-c1cc2cc(C)cc(OC)c2s1)C(C)C` [Example 49], for which half-maximal inhibition (IC50) was put at 14.2 nM.
In turn, `COc1cc(C)cc2cc(-c3c(CN4CCN(C)CC4)cn4ncnc(N)c34)sc12` [Example 50] had an IC50 of 0.1 nM.
For `COc1cc(C)cc2cc(-c3c(CN4CCCC4)cn4ncnc(N)c34)sc12` [Example 47] the value was 1 nM; for `COc1cc(C)cc2cc(-c3c(COCCN4CCCC4)cn4ncnc(N)c34)sc12` [Example 43], 10.7 nM; for `COc1cc(C)cc2cc(-c3c(COCCN4CCOCC4)cn4ncnc(N)c34)sc12` [Example 42], 30 nM.
The value for `COc1cc(C)cc2cc(-c3c(CN4CCC(F)(F)C4)cn4ncnc(N)c34)sc12` [Example 63] was 3 nM; that for `COc1cc(C)cc2cc(-c3c(CN4CCCOCC4)cn4ncnc(N)c34)sc12` [Example 54] was 2.3 nM.
With `COc1cc(C)cc2cc(-c3c(CN4CCCCC4)cn4ncnc(N)c34)sc12` [Example 51], the IC50 was found to be 0.7 nM.
Consider `COc1cc(C)cc2cc(-c3c(CN4CCCN(C)CC4)cn4ncnc(N)c34)sc12` [Example 68], for which the IC50 is 0.8 nM.
For `COc1cc(C)cc2cc(-c3c(CNC4CCOC4)cn4ncnc(N)c34)sc12` (centres unmarked) [Example 73] the value was 2.3 nM.
For `COc1cc(C)cc2cc(-c3c(COCCCC#N)cn4ncnc(N)c34)sc12` [Example 41] the value was 12.7 nM; for `COc1cc(C)cc2cc(-c3c(CN4CCOC(C)C4)cn4ncnc(N)c34)sc12` (centres unmarked) [Example 76], 4.9 nM.
For `COc1cc(C)cc2cc(-c3c(CN4CCCC(C(N)=O)C4)cn4ncnc(N)c34)sc12` (centres unmarked) [Example 69] the value was 4.4 nM.
The molecule `COc1cc(C)cc2cc(-c3c(CN4CCN(C5CC5)CC4)cn4ncnc(N)c34)sc12` [Example 58] had an IC50 of 6.2 nM.
`COc1cc(C)cc2cc(-c3c(CN4CCOC(C)(C)C4)cn4ncnc(N)c34)sc12` [Example 52] gave an IC50 of 3.8 nM.
The value for `COc1cc(C)cc2cc(-c3c(CN(C)C4CCS(=O)(=O)C4)cn4ncnc(N)c34)sc12` (centres unmarked) [Example 57] was 3 nM; that for `COc1cc(C)cc2cc(-c3c(CN(C)CC(F)(F)F)cn4ncnc(N)c34)sc12` [Example 61] was 14.6 nM; that for `CCC(C)NCc1cn2ncnc(N)c2c1-c1cc2cc(C)cc(OC)c2s1` (centres unmarked) [Example 74] was 5 nM.
For `COCCN(C)Cc1cn2ncnc(N)c2c1-c1cc2cc(C)cc(OC)c2s1` [Example 70] the value was 7.4 nM.
For `COc1cc(C)cc2cc(-c3c(CN4CCCC(OC)C4)cn4ncnc(N)c34)sc12` (centres unmarked) [Example 62] the value was 2.6 nM; for `COc1cc(C)cc2cc(-c3c(CN4CCC(OC)CC4)cn4ncnc(N)c34)sc12` [Example 60], 12.5 nM; for `COc1cc(C)cc2cc(-c3c(CN4CCNC(=O)C4C)cn4ncnc(N)c34)sc12` (centres unmarked) [Example 55], 1.4 nM.
Molecule `COc1cc(C)cc2cc(-c3c(COCCCN(C)C)cn4ncnc(N)c34)sc12` [Example 45] yielded a half-maximal inhibitory concentration (IC50) of 24.8 nM.
For `COc1cc(C)cc2cc(-c3c(CNC4CC4)cn4ncnc(N)c34)sc12` [Example 48] the value was 3.6 nM.
For `COc1cc(C)cc2cc(-c3c(CN4CNC(=O)C4)cn4ncnc(N)c34)sc12` [Example 56] the value was 3.1 nM; for `COc1cc(C)cc2cc(-c3c(COCC#N)cn4ncnc(N)c34)sc12` [Example 40], 9.1 nM; for `COc1cc(C)cc2cc(-c3c(CN4CC[C@@H](N(C)C)C4)cn4ncnc(N)c34)sc12` [Example 65], 0.6 nM.
For `COc1cc(C)cc2cc(-c3c(CN4CCC(C(N)=O)CC4)cn4ncnc(N)c34)sc12` [Example 64] the value was 1.1 nM.

The values are drawn from patent publication US9598416B2, “Substituted benzothienyl-pyrrolotriazines and uses thereof in the treatment cancer” (Bayer Intellectual Property GmbH, priority 2011, dated 2017).
